Measurements as given in ChEMBL document CHEMBL6083182, “Development of Peptide Paratope Mimics Derived from the Anti-ROR1 Antibody and Long-Acting Peptide-Drug Conjugates for Targeted Cancer Therapy” (J Med Chem, 2024).
Calls of active or inactive are those of the source. The calls are words filed in the database; no cut-off is given here.

How the values were obtained:
[1] = Cytotoxicity against human MCF-10A cells assessed as decrease in cell viability incubated for 24 hrs by CCK-8 assay; type: toxicity, cell-based
[2] = Toxicity in BALB/c nude mouse xenografted with human MDA-MB-231 cells assessed as appearance of apoptotic/necrotic cells in kidney at 5 mg/kg, iv administered once every 3 days for 27 days starting from day 3 by H and E staining based analysis; type: organism-based; settings: in vivo, 576 h, time 24 day
[3] = test system: MDA-MB-231; assay: Induction of apoptosis in human MDA-MB-231 cells assessed as necrotic cells at 16 nM incubated for 24 hrs by AnnexinV-FITC/PI staining based flow cytometry (reference value: 0.034%); type: functional
[4] = Drug uptake in ROR1-positive human MDA-MB-231 cells assessed as increase in fluorescence intensity incubated for 0.25 to 2 hrs by Hoechst 33342 staining based confocal fluorescence microscopic analysis; type: ADME, cell-based; settings: time 0.25-2 hrs
[5] = Toxicity in BALB/c nude mouse xenografted with human MDA-MB-231 cells assessed as appearance of apoptotic/necrotic cells in lungs at 5 mg/kg, iv administered once every 3 days for 27 days starting from day 3 by H and E staining based analysis; type: organism-based; settings: in vivo, 576 h, time 24 day
[6] = test system: MDA-MB-231; assay: Induction of apoptosis in human MDA-MB-231 cells assessed as late apoptotic cells at 16 nM incubated for 24 hrs by AnnexinV-FITC/PI staining based flow cytometry (reference value: 0.034%); type: functional
[7] = test system: MDA-MB-231; assay: Antitumor activity against human MDA-MB-231 cells xenografted in BALB/c nude mouse assessed as tumor growth inhibition at 5 mg/kg, iv administered once every 3 days for 27 days starting from day 3; type: functional, organism-based; settings: time 24.0 day
[8] = test system: MDA-MB-231; assay: Cytotoxicity against ROR1-positive human MDA-MB-231 cells assessed as decrease in cell viability incubated for 24 hrs by CCK-8 assay; type: functional, cell-based; settings: MDA-MB-231, 24 h
[9] = Toxicity in BALB/c nude mouse xenografted with human MDA-MB-231 cells assessed as appearance of apoptotic/necrotic cells in heart at 5 mg/kg, iv administered once every 3 days for 27 days starting from day 3 by H and E staining based analysis; type: organism-based; settings: in vivo, 576 h, time 24 day
[10] = test system: MDA-MB-231; assay: Antitumor activity against human MDA-MB-231 cells xenografted in BALB/c nude mouse assessed as reduction in tumor volume at 5 mg/kg, iv measured after first injection starting from day 3 on day 6; type: functional, organism-based; settings: time 3.0 day
[11] = Toxicity in BALB/c nude mouse xenografted in human MDA-MB-231 cells assessed as increase in ALP level at 5 mg/kg, iv administered once every 3 days for 27 days starting from day 3; type: organism-based; settings: in vivo, 576 h, time 24 day
[12] = test system: MDA-MB-231; assay: Induction of apoptosis in human MDA-MB-231 cells assessed as early apoptotic cells at 16 nM incubated for 24 hrs by AnnexinV-FITC/PI staining based flow cytometry (reference value: 0%); type: functional
[13] = test system: MDA-MB-231; assay: Induction of apoptosis in human MDA-MB-231 cells at 10 uM incubated for 24 hrs by Annexin V-FITC/PI staining based flow cytometric analysis; type: functional, cell-based
[14] = Toxicity in BALB/c nude mouse xenografted in human MDA-MB-231 cells assessed as increase in urea level at 5 mg/kg, iv administered once every 3 days for 27 days starting from day 3; type: organism-based; settings: in vivo, 576 h, time 24 day
[15] = Toxicity in BALB/c nude mouse xenografted in human MDA-MB-231 cells assessed as increase in ALT level at 5 mg/kg, iv administered once every 3 days for 27 days starting from day 3; type: organism-based; settings: in vivo, 576 h, time 24 day
[16] = Toxicity in BALB/c nude mouse xenografted in human MDA-MB-231 cells assessed as increase in AST level at 5 mg/kg, iv administered once every 3 days for 27 days; type: organism-based; settings: in vivo, 576 h, time 24 day
[17] = Toxicity in BALB/c nude mouse xenografted with human MDA-MB-231 cells assessed as appearance of apoptotic/necrotic cells in liver at 5 mg/kg, iv administered once every 3 days for 27 days starting from day 3 by H and E staining based analysis; type: organism-based; settings: in vivo, 576 h, time 24 day
[18] = test system: MDA-MB-231; assay: Induction of apoptosis in human MDA-MB-231 cells assessed as viable cells at 16 nM incubated for 24 hrs by AnnexinV-FITC/PI staining based flow cytometry (reference value: 99.9%); type: functional; settings: read-out: Activity
[19] = test system: SK-HEP1; assay: Cytotoxicity against human SK-HEP1 cells assessed as decrease in cell viability incubated for 24 hrs by CCK-8 assay; type: functional, cell-based; settings: SK-HEP1, 24 h
[20] = Toxicity in BALB/c nude mouse xenografted with human MDA-MB-231 cells assessed as body weight loss at 5 mg/kg, iv administered once every 3 days for 27 days starting from day 3; type: organism-based; settings: in vivo, 576 h, time 24 day
[21] = Drug distribution in BALB/c nude mouse tumor xenografted with human MDA-MB-231 cells assessed as increase in fluorescence signal administered as indocyanine green dye conjugate and measured after 1 hrs by DAPI staining based immunofluorescence analysis; type: ADME, tissue-based, Neoplasm; settings: in vivo
[22] = Drug penetration in human MDA-MB-231 cell spheroids assessed as fluorescence penetration rate at 10 uM administered as FITC-labeled compound and measured at 1 hrs by dual-color in vivo high-speed two-photon imaging system; type: ADME; settings: mda-mb-231, 1 h
[23] = organism: Homo sapiens; assay: Binding affinity to CD16A (unknown origin) by SPR analysis
[24] = Drug uptake in BALB/c nude mouse tumor xenografted with human MDA-MB-231 cells assessed as increase in fluorescence signal administered as indocyanine green dye conjugate and measured after 0.5 hrs by invivo imaging analysis; type: ADME, tissue-based, Neoplasm; settings: in vivo
[25] = Drug uptake in BALB/c nude mouse liver xenografted with human MDA-MB-231 cells assessed as increase in fluorescence signal administered as indocyanine green dye conjugate and measured after 1 hrs by ex-vivo imaging analysis; type: ADME, tissue-based
[26] = target: T1, Inactive tyrosine-protein kinase transmembrane receptor ROR1 (Homo sapiens, UniProt Q01973); assay: Binding affinity to N-terminal His/GST-tagged recombinant human ROR1 (453 to 783 residues) extracted from baculovirus infected insect cells assessed as dissociation constant by SPR analysis
T1 sequence (Q01973 whole entry, the tested form may be a part): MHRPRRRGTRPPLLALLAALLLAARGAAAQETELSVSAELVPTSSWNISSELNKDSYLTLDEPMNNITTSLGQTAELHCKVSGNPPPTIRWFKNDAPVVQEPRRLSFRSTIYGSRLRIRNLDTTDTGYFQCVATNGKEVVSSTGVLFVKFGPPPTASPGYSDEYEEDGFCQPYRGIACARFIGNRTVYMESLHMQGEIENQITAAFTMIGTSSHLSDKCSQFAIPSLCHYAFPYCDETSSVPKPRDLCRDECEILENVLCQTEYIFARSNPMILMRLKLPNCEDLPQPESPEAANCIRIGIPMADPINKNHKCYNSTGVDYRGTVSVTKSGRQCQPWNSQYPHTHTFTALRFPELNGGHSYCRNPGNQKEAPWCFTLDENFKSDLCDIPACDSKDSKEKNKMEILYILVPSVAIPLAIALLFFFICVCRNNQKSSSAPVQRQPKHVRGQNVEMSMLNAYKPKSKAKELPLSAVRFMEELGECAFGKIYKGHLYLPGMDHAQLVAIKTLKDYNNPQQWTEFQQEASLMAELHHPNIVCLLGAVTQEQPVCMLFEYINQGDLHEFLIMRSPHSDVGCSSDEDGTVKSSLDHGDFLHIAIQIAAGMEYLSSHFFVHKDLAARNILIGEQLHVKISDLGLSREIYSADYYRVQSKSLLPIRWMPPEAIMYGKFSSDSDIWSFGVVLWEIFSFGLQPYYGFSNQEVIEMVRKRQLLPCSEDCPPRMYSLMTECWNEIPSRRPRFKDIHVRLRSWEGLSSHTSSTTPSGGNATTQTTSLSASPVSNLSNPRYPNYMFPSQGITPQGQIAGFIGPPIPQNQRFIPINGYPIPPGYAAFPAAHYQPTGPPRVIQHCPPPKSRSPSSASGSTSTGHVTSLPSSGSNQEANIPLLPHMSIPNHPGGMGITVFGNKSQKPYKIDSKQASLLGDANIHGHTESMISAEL

[27] = test system: MCF7; assay: Binding affinity to ROR1 negative human MCF7 cells at 10 uM administered as FITC-labeled compound and measured after 30 mins by Hoechst 33342 staining based confocal fluorescence microscopic analysis; type: functional, cell-based
[28] = Drug penetration in human MDA-MB-231 cell spheroids assessed as increase in penetration rate at 10 uM administered as FITC-labeled compound and measured at 0.5 hrs by dual-color in vivo high-speed two-photon imaging system; type: ADME; settings: mda-mb-231, 0.5 h
[29] = target: T1, Inactive tyrosine-protein kinase transmembrane receptor ROR1; assay: Binding affinity to ROR1 positive human MDA-MB-231 cells at 10 uM administered as FITC-labeled compound and measured after 30 mins by Hoechst 33342 staining based confocal fluorescence microscopic analysis; type: cell-based
[30] = Drug uptake in BALB/c nude mouse tumor xenografted with human MDA-MB-231 cells assessed as increase in fluorescence signal administered as indocyanine green dye conjugate and measured after 1 hrs by ex-vivo imaging analysis; type: ADME, tissue-based, Neoplasm
[31] = Drug uptake in ROR1 positive human MDA-MB-231 cells administered as FITC-labeled compound and measured after 30 to 120 mins by Hoechst 33342 staining based confocal fluorescence microscopic analysis; type: ADME, cell-based; settings: time 30-120 min
[32] = Drug uptake in BALB/c nude mouse kidney xenografted with human MDA-MB-231 cells assessed as increase in fluorescence signal administered as indocyanine green dye conjugate and measured after 1 hrs by ex-vivo imaging analysis; type: ADME, tissue-based

COc1cccc2c1C(=O)c1c(O)c3c(c(O)c1C2=O)C[C@@](O)(C(=O)CO)C[C@@H]3O[C@H]1C[C@H](N)[C@H](O)[C@H](C)O1 [DOXORUBICIN]
IC50 at 24 h [1]: 121 nM | Activity [2]: Toxic | Activity [3]: 0.39% | Drug uptake [4]: Active | Activity [5]: Toxic | Activity [6]: 3.25% | Activity [7]: Not active; Poor Antitumor Effect Observed | IC50 [8]: 183 nM | Activity [9]: Toxic | Activity [10]: inactive | Activity [11]: Toxic | Activity [12]: 24.9% | Activity [13]: Active; Exhibited Apoptosis Mostly In Late Stage | Activity [14]: Toxic | Activity [15]: Toxic | Activity [16]: Toxic | Activity [17]: Toxic | viability at 0.016 µM [18]: 71.5% | IC50 [19]: 28 nM | Activity [20]: Toxic

H-SDINDRQIPGYSTYWGDF-NH2
Drug uptake [21]: Active | Drug uptake [22]: ~ 100% | Activity [23]: Not active; Abnormal Binding Affinity Curves Observed | Drug uptake [24]: Active | Drug uptake [25]: Active | Kd [26]: 1.57 nM | Activity [27]: inactive | Drug uptake [28]: Active | Activity [29]: Active | Drug uptake [30]: Active | Drug uptake [31]: Active | Drug uptake [32]: Active
